Measurements: ChEMBL document CHEMBL1201862, “PubChem BioAssay data set” (2004)
Activity calls are given as the source filed them.

Tests used:
[1] = target: DNA dC->dU-editing enzyme APOBEC-3A (Homo sapiens, UniProt P31941); experiment: Dose Response confirmation of small molecule APOBEC3A DNA Deaminase Inhibitors via a fluorescence-based single-stranded DNA deaminase assay. [Related pubchem assays (depositor defined):AID493011, AID493024]; format: functional
[2] = target: DNA dC->dU-editing enzyme APOBEC-3G (Homo sapiens, UniProt Q9HC16); format: functional;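 note: Dose-response counterscreen measuring inhibition of APOBEC3G DNA deaminase activity, run while confirming APOBEC3A inhibitors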
Sequence of DNA dC->dU-editing enzyme APOBEC-3G (Q9HC16 whole entry): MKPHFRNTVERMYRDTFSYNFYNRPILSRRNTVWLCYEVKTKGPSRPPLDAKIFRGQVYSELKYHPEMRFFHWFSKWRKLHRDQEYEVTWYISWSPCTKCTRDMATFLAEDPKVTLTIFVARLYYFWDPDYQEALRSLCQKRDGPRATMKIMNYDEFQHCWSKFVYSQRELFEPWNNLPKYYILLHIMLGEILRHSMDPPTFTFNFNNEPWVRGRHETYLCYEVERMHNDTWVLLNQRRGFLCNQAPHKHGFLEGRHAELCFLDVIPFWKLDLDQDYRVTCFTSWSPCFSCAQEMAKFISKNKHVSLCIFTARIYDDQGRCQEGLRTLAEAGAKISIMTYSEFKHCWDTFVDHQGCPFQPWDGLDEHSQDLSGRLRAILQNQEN

[3] = HEK-293T viability loss after treatment – luminescence, T-cell screen hits, cytotoxicity control for TCR NF-kB inhibitor project, dose response (AID 489026); format: functional, cell-based;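 note: cells exposed to compound about 14 hours before the viability readout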
[4] = reduction of Shn3 3'UTR-driven luciferase in osteoblasts – cell-based, Clone20 osteoblasts, firefly luciferase, cherry-picked, dose response (AID 624132); format: functional;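 note: firefly luciferase luminescence from reporter carrying the Shn3 3'UTR in osteoblasts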
[5] = non-specific 3'UTR reporter inhibition in Clone20-Shn3RL – cell-based, Renilla luciferase, cherry-picked, counter-screen for Shn3 inhibitor project, dose response (AID 624133); format: functional
[6] = blockers of HIV-1 ZM109 envelope-driven cell-cell fusion – HeLa effector, CEM target cells, luciferase, cherry-pick, dose response (AID 652058); format: functional, cell-based;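 note: luciferase signal from HIV-1 Env mediated cell-cell fusion of effector and target cells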
[7] = HIV-1 AD8 envelope cell-cell fusion blockers – cherry-pick, dose response (AID 652062); format: functional, cell-based;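 note: luciferase signal from cell-cell fusion driven by HIV-1 clade B AD8 Env; potency is for inhibitors of fusion seen as a drop in luminescence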
[8] = target: T1, Short transient receptor potential channel 4 (Mus musculus, UniProt Q9QUQ5); experiment: calcium entry via TRPC4 opening agents – cell-based, HEK293 TRPC4/mu-opioid, Fluo-4 calcium, dose response (AID 434937); format: functional
T1 sequence (Q9QUQ5 whole entry): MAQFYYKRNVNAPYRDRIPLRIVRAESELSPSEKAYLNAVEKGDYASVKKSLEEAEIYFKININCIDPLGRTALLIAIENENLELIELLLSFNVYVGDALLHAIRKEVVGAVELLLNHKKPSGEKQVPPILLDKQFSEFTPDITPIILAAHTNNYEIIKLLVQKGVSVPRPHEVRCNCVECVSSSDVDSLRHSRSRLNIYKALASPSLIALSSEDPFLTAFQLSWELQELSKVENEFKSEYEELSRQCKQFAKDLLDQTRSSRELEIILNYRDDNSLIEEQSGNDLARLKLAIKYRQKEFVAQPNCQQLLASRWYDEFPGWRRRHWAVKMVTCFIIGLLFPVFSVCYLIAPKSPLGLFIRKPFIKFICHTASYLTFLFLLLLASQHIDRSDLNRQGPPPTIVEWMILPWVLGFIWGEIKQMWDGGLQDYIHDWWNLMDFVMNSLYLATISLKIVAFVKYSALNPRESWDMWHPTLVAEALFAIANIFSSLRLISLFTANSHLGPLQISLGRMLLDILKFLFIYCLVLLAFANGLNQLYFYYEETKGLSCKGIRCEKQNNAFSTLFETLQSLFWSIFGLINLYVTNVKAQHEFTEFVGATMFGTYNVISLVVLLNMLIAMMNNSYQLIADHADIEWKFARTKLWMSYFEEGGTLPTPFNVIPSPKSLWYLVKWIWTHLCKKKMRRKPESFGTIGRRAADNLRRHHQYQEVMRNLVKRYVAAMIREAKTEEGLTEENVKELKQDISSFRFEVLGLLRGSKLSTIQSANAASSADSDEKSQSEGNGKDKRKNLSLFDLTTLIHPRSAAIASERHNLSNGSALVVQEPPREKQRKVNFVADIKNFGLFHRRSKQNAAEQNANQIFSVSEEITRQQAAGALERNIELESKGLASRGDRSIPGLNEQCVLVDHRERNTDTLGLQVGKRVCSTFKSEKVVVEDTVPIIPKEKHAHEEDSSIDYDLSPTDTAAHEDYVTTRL

BJ [9] = experiment: BJ-TERT fibroblast viability loss – cell-based, RAS-independent, luminescence, dose response (AID 1933); format: functional; conditions: Homo sapiens
BJ [10] = experiment: cells; format: functional, cell-based; conditions: Homo sapiens
BJ [11] = experiment: BJ-TERT-LT-ST fibroblast viability loss – cell-based, RAS-independent, luminescence, dose response (AID 1935); format: functional; conditions: Homo sapiens;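 note: BJ fibroblasts immortalized with TERT plus LT and ST oncogenes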
[12] = DRD fibroblast viability loss – cell-based, non-viral oncogenic, luminescence, dose response (AID 1934); format: functional; conditions: Homo sapiens
Large T antigen = Large T antigen (Simian virus 40, UniProt P03070); format: functional, Betapolyomavirus macacae;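 note: Confirmatory-stage PubChem screen for compounds that inhibit SV40 T antigen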
Sequence of Large T antigen (P03070 whole entry): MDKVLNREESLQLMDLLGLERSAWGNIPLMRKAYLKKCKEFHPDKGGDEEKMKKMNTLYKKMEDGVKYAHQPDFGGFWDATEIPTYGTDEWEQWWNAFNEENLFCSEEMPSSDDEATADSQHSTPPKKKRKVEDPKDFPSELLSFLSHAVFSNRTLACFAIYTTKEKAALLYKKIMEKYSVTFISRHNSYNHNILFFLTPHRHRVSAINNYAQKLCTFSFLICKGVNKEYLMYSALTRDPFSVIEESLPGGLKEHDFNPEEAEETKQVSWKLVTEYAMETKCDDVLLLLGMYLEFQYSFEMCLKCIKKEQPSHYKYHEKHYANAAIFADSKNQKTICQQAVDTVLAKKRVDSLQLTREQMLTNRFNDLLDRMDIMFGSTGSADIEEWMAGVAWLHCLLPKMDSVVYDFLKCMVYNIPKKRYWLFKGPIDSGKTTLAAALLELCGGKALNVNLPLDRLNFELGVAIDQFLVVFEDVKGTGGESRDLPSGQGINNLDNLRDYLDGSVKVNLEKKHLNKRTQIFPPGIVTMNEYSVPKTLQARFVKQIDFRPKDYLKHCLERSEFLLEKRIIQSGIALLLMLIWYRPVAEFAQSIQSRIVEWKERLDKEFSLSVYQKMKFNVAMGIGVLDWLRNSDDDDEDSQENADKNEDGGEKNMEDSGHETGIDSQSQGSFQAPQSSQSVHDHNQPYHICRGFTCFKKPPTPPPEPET

[13] = target: Induced myeloid leukemia cell differentiation protein Mcl-1 (Homo sapiens, UniProt Q07820); format: functional
Sequence of Induced myeloid leukemia cell differentiation protein Mcl-1 (Q07820 whole entry): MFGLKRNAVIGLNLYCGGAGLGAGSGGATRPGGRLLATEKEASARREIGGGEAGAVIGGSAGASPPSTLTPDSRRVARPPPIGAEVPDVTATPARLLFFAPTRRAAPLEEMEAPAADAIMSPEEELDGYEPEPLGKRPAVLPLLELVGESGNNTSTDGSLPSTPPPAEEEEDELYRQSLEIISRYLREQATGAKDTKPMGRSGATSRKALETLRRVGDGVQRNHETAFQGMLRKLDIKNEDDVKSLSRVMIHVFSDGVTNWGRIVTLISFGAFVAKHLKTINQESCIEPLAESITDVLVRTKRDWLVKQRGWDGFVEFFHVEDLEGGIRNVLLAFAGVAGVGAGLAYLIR

[14] = target: T2, Replicative DNA helicase DnaB (Mycobacterium tuberculosis, UniProt P9WMR3); experiment: DnaB intein splicing inhibitors, dose response, biochemical, cell-free fluorescence (AID 449749); format: functional
T2 sequence (P9WMR3 whole entry): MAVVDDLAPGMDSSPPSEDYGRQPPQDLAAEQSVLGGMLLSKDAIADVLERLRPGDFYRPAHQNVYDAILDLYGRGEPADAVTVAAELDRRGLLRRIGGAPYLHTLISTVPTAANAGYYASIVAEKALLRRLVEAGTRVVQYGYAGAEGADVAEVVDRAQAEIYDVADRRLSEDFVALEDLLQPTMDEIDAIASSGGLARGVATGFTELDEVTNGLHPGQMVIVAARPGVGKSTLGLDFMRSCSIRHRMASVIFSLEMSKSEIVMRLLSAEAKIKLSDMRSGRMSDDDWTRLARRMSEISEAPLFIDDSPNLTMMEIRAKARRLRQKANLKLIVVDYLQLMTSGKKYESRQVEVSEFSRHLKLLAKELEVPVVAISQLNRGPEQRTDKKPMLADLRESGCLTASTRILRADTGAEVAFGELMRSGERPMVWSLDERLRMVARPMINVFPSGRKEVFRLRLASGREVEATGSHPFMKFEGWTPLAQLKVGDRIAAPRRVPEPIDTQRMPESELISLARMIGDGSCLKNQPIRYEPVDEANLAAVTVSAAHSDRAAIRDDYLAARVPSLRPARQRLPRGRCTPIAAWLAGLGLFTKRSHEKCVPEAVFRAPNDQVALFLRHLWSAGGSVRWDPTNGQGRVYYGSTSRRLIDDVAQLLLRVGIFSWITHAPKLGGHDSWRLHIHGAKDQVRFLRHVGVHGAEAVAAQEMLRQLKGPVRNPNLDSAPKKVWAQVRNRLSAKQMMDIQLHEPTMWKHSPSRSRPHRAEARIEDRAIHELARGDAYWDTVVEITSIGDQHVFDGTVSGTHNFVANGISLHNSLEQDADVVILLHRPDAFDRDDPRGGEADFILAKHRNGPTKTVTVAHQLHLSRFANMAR

Protein RecA = target: T3, Protein RecA (Mycobacterium tuberculosis, UniProt P9WHJ3); experiment: Fluorescence Cell-Free Homogeneous Dose Retest to Identify Inhibitors of RecA-Intein Splicing Activity. [Related pubchem assays (depositor defined):AID2097, AID2223, AID489010, AID492950]; format: functional
T3 sequence (P9WHJ3 whole entry): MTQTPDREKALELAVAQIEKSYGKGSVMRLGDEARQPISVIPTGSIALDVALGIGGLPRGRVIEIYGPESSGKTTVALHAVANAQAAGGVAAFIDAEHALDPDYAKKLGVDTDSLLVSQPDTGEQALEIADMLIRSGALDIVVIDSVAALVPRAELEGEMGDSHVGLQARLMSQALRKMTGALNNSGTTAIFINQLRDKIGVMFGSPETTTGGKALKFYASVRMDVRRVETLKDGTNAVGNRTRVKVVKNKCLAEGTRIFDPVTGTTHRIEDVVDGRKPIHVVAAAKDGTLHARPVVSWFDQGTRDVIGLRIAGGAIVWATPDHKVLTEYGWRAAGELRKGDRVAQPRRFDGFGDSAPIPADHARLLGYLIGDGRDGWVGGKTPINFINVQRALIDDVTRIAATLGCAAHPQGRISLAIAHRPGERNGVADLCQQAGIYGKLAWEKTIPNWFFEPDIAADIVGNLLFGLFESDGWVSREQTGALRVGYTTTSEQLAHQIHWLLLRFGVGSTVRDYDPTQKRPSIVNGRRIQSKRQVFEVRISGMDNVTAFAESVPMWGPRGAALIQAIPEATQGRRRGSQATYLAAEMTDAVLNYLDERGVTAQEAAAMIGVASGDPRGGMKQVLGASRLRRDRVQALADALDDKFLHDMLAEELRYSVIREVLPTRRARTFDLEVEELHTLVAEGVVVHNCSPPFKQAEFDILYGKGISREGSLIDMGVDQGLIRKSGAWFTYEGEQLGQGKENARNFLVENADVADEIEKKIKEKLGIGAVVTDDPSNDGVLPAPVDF

[15] = target: T4, Small ubiquitin-related modifier 1 (Homo sapiens, UniProt P63165); experiment: SUMO1 protein interaction blockers, potency – biochemical, fluorescence polarization, uHTS hits, dose response (AID 624382); format: functional; conditions: read-out: IC50_Mean
T4 sequence (P63165 whole entry): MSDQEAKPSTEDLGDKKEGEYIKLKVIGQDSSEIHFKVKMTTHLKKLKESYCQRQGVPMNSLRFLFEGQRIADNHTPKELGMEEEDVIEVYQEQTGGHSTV

[16] = target: T4, Small ubiquitin-related modifier 1; experiment: SUMO1 protein-protein binding blockers, potency – biochemical, FRET, dose response (AID 624383); format: functional; conditions: read-out: IC50_Mean
[17] = target: T5, Histone-lysine N-methyltransferase NSD2 (Homo sapiens, UniProt O96028); format: biochemical
T5 sequence (O96028 whole entry): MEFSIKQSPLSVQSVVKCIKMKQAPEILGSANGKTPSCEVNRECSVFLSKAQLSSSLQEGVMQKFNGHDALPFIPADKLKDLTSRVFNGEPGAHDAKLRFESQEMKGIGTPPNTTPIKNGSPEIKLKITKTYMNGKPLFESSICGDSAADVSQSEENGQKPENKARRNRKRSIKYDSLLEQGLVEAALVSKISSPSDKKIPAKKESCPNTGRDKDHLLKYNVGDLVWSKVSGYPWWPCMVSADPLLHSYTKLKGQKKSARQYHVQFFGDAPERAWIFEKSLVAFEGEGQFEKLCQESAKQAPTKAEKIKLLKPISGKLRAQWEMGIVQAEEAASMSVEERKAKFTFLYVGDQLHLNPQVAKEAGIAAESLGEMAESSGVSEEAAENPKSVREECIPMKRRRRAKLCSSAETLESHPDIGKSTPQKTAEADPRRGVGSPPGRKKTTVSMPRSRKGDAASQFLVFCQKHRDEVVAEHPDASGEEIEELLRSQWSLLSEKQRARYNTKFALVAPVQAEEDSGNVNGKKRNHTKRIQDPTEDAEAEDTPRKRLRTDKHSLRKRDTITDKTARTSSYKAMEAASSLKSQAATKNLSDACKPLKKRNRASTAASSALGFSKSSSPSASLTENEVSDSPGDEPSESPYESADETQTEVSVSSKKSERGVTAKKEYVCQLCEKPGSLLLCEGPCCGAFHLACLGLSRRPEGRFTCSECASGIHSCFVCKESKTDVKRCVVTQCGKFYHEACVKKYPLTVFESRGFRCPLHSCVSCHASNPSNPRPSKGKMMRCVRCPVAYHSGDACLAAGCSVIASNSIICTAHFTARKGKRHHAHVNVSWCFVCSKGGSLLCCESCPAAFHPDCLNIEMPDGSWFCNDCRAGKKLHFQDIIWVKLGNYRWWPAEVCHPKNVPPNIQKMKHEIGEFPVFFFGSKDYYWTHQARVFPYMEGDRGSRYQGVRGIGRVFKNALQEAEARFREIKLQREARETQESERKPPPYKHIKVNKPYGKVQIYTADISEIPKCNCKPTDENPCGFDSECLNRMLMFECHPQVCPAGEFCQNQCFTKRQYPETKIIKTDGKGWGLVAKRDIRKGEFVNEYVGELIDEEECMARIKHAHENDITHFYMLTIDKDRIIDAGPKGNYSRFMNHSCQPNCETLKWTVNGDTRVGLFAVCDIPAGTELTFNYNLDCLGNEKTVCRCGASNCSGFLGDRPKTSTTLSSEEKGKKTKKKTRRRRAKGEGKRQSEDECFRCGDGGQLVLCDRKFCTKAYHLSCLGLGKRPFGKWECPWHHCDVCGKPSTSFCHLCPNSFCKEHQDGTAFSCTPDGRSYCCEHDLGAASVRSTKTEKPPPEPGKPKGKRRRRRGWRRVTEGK

Sequence of DNA dC->dU-editing enzyme APOBEC-3A (P31941 whole entry): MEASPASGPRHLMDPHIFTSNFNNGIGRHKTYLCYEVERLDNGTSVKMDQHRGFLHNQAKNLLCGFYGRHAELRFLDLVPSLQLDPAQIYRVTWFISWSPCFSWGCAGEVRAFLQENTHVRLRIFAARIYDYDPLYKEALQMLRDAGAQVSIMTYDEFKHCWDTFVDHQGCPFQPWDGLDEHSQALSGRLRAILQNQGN

## CCCc1nc2sc3c(SCC(=O)NCc4ccco4)ncnc3c2c2c1CCC2
[1]
  IC50: 15.8 µM (active)
[2]
  IC50: 25.3 µM (active)

## O=C(Nc1ccc(S(=O)(=O)N2CCN(Cc3ccccc3)CC2)cc1)c1cnccn1
[3]
  IC50: > 80 µM (inactive)
[4]
  AC50: 1.65 µM (active)
[5]
  AC50: 4.15 µM (active)
[6]
  AC50: < 0.26 µM (active)
[7]
  AC50: 4.9 µM (active)

## O=C(O)Cc1ccc(S(=O)(=O)N2CCCC2)s1
[1]
  IC50: 17.4 µM (active)
[2]
  IC50: 66.5 µM (active)

## COc1ccc2c(/C=C/c3cc[n+](C)cc3)c[nH]c2c1
[1]
  IC50: 6.12 µM (active)
[2]
  IC50: 6.31 µM (active)

## COc1cc(C)c(NC(=O)C2CCN(S(=O)(=O)c3cccs3)CC2)cc1OC
[1]
  IC50: 12 µM (active)
[2]
  IC50: 13.9 µM (active)

## CCOC(=O)C1(CCOc2ccccc2)CCN(Cc2ccc(OC)c(O)c2)CC1
[8]
  EC50: 0.473 µM (active)

## CCc1cc2c(s1)N1Cc3ccccc3C(C(=O)c3cccc([N+](=O)[O-])c3)=C1NC2=O
BJ [9]
  EC50: > 150 µM (not active)
BJ [10]
  EC50: > 150 µM (not active)
BJ [11]
  EC50: > 150 µM (inconclusive)
[12]
  EC50: > 150 µM (not active)
[3]
  IC50: > 80 µM (inactive)

## CN1C(=O)/C(=C/c2ccc(-c3ccccc3[N+](=O)[O-])o2)S/C1=N\c1ccc(Cl)c(C(=O)O)c1
Large T antigen
  IC50: 52.8 µM (active)
[13]
  IC50: 14 µM (active)
[14]
  AC50: 10.6 µM (active)
Protein RecA
  EC50: 5.51 µM (active)
[15]
  IC50: > 66.6 µM (inactive)
[16]
  IC50: 17.7 µM (active)
[17]
  AC50: 4.58 µM (active)

## CC(=Nc1cc(C)cc(C)c1)N(C)CCNS(=O)(=O)c1ccc(Cl)cc1
[1]
  IC50: 2.67 µM (active)
[2]
  IC50: 4.92 µM (active)
